Experiments:
[1] = system: ABSSSI suspected or proven to be due to a gram-positive pathogen, including MRSA; assay: SOLO I Phase 3 trial, efficacy: single dose IV oritavancin versus IV vancomycin for 7 to 10 days; type: in vivo, human; conditions: for Lesion Size Reduction ≧20% From Baseline / Primary efficacy endpoint response rate (cessation of spread, absence of fever, no rescue antibiotics): ECE 48 to 72 hours; for Investigator-Assessed Clinical Cure / Sustained Clinical Cure: PTE 7 to 14 days after EOT
Protocol: The primary efficacy endpoint comprised: 1) cessation of spreading or reduction in the size of the baseline lesion, 2) absence of fever, and 3) no rescue antibiotic, at 48 to 72 hours, for the modified intent to treat population.
The study design was consistent with current guidelines from FDA (U.S. Food and Drug Administration. Guidance for Industry Acute Bacterial Skin and Skin Structure Infections: Developing Drugs for Treatment (DRAFT GUIDANCE). Available via Internet at the URL containing: fda.gov/downloads/Drugs/GuidanceComplianceRegulatoryInformation/Guidances/ucm071185.p df) and EMA (European Medicines Agency Committee for Medicinal Products for Human Use. Addendum to the note for guidance on evaluation of medicinal products indicated for treatment of bacterial infections (CHMP/EWP/558/95 REV 2) to address indication-specific clinical data (draft). 2012. Available via Internet at the URL containing: ema.europa.eu/docs/en_GB/document_library/Scientific_guideline/2012/07/WC500129443.pdf) and Foundation for National Institutes of Health guidance was considered for analyses (Talbot G H etl. Clin Infect Dis. 2012. 55(8):1114-1121). The protocol was approved by institutional review boards/ethics committees and all patients provided written informed consent. The study was conducted from January 2011 through October 2012 at 46 study centers in Mexico, Spain, Germany, Romania, Russia, Ukraine, Israel, India, and the United States. […] Aztreonam and metronidazole were permitted for gram-negative and anaerobic cover, respectively.
Clinical evaluations were performed at the following time points: Early Clinical Evaluation (ECE) at 48 to 72 hours after the initiation of the study drug infusion, End of Therapy (EOT) at Day 7 to Day 10 or the day the patient stopped study drug or changed to non-study drug therapy for primary ABSSSI, Day 10 Evaluation defined as 10 days after the initiation of the study drug infusion, Post Therapy Evaluation (PTE) at 7 to 14 days after the EOT visit, and Safety Follow-up at 60 days (+7 days) after the initiation of the study drug infusion. Safety data was reviewed by a data monitoring committee.
Eligible patients were to be at least 18 years of age with diagnosis of ABSSSI that was suspected or proven to be due to a gram-positive pathogen and which required at least 7 days of IV therapy. The diagnosis of ABSSSI was defined as wound infections (either traumatic or surgical in origin), cellulitis/erysipelas or major cutaneous abscess with surrounding erythema, edema, and/or induration of at least 75 cm^2. The onset of wound infections or cellulitis/erysipelas must have occurred within 7 days prior to randomization. Patients also had to present with signs and symptoms of systemic inflammation. Patients were not eligible to participate if they received systemic or topical antibacterial therapy with gram-positive activity within the preceding 14 days.
The primary efficacy endpoint was a composite outcome of 1) cessation of spreading or reduction in the size of the baseline lesion, 2) absence of fever, and 3) no rescue antibiotic medication at the ECE visit, for the mITT population.
The secondary efficacy outcomes were as follows: 1) Lesion area decrease by ≧20% from Baseline at ECE, 2) Investigator-Assessed Clinical Response at PTE, 3) Sustained Clinical Response at PTE.
The analyses were performed for patients who had lesion area assessments at baseline and ECE using the mITT and CE populations.
If a patient had clinical failure assessed beyond the PTE visit window, the patient was considered as a clinical failure. If a patient had clinical success assessed beyond the PTE visit window, a) and if the patient had clinical failure before the PTE visit, the patient was considered a clinical failure at PTE or b) if the patient had clinical success also before the PTE visit, the patient was considered a clinical success at PTE.

[2] = system: S. aureus strains (14 mecC MRSA, 2 mecA MRSA, ATCC 29213 MSSA); assay: In vitro time-kill assays at free peak and free trough concentrations; type: cell-based, Staphylococcus aureus
Protocol: Viable cell count was determined by serial dilution plating, including the use of 25 g/L charcoal suspension to limit antibiotic carryover. […] Time-kill assays were repeated at least twice independently; results presented are from a representative experiment.
Doubling dilution concentrations of comparator agents were likewise chosen to approximate their fCmax and fCmin levels in plasma when administered at approved dosages for complicated skin and skin structure infections, using pharmacokinetic data and protein binding values from their respective package inserts (DAP [Cubicin®]; LZD [Zyvox®]; VAN [Vancocin®]; Table 3).

SMILES: CN[C@H](CC(C)C)C(=O)N[C@H]1C(=O)N[C@@H](CC(N)=O)C(=O)N[C@H]2C(=O)N[C@H]3C(=O)N[C@H](C(=O)N[C@H](C(=O)O)c4cc(O)cc(O)c4-c4cc3ccc4O)[C@H](O)c3ccc(c(Cl)c3)Oc3cc2cc(c3O[C@@H]2O[C@H](CO)[C@@H](O)[C@H](O)[C@H]2O[C@H]2C[C@](C)(N)[C@H](O)[C@H](C)O2)Oc2ccc(cc2Cl)[C@H]1O [Vancomycin, vancomycin]
- Lesion Size Reduction ≧20% From Baseline ([1]; CE): 88.7%
- Primary efficacy endpoint response rate (cessation of spread, absence of fever, no rescue antibiotics) ([1]; CE): 86.1%
- Investigator-Assessed Clinical Cure ([1]; CE): 93.2%
- Lesion Size Reduction ≧20% From Baseline ([1]; MRSA MicroE): 89.0%
- Primary efficacy endpoint response rate (cessation of spread, absence of fever, no rescue antibiotics) ([1]; MRSA MicroE): 86.6%
- Investigator-Assessed Clinical Cure ([1]; MRSA MicroE): 97.6%
- Lesion Size Reduction ≧20% From Baseline ([1]; MRSA MicroITT): 84.0%
- Primary efficacy endpoint response rate (cessation of spread, absence of fever, no rescue antibiotics) ([1]; MRSA MicroITT): 80.0%
- Lesion Size Reduction ≧20% From Baseline ([1]; MRSA MicroITT, listed as vancomycin): 84.0%
- Investigator-Assessed Clinical Cure ([1]; MRSA MicroITT): 83.0%
- Sustained Clinical Cure ([1]; MRSA MicroITT): 69.0%
- Lesion Size Reduction ≧20% From Baseline ([1]; mITT): 82.9%
- Primary efficacy endpoint response rate (cessation of spread, absence of fever, no rescue antibiotics) ([1]; mITT): 78.9%
- Lesion Size Reduction ≧20% From Baseline ([1]; mITT, listed as vancomycin): 82.9%
- Primary efficacy endpoint response rate (cessation of spread, absence of fever, no rescue antibiotics) ([1]; mITT, listed as vancomycin): 78.9%
- Investigator-Assessed Clinical Cure ([1]; mITT): 80.0%
- Sustained Clinical Cure ([1]; mITT): 69.7%
- Investigator-Assessed Clinical Cure ([1]; mITT, listed as vancomycin): 80.0%
- Sustained Clinical Cure ([1]; mITT, listed as vancomycin): 69.7%
- Time to cidality (≧3 log decrease) ([2]; 57147 (mecC), vancomycin ƒCmax 16 mg/L): 6-24 h
- Time to cidality (≧3 log decrease) ([2]; 57147 (mecC), vancomycin ƒCmin 4 mg/L): 6-24 h
- Time to cidality (≧3 log decrease) ([2]; 70611 (mecC), vancomycin ƒCmax 16 mg/L): 6-24 h
- Time to cidality (≧3 log decrease) ([2]; 70611 (mecC), vancomycin ƒCmin 4 mg/L): 6-24 h
- Time to cidality (≧3 log decrease) ([2]; 73348 (mecC), vancomycin ƒCmax 16 mg/L): 6-24 h
- Time to cidality (≧3 log decrease) ([2]; 73348 (mecC), vancomycin ƒCmin 4 mg/L): 6-24 h
- Time to cidality (≧3 log decrease) ([2]; 73415 (mecC), vancomycin ƒCmax 16 mg/L): 6-24 h
- Time to cidality (≧3 log decrease) ([2]; 73415 (mecC), vancomycin ƒCmin 4 mg/L): 6-24 h
- Time to cidality (≧3 log decrease) ([2]; 73617 (mecC), vancomycin ƒCmax 16 mg/L): 6-24 h
- Time to cidality (≧3 log decrease) ([2]; 73617 (mecC), vancomycin ƒCmin 4 mg/L): 6-24 h
- Time to cidality (≧3 log decrease) ([2]; 73829 (mecC), vancomycin ƒCmax 16 mg/L): 6-24 h
- Time to cidality (≧3 log decrease) ([2]; 73829 (mecC), vancomycin ƒCmin 4 mg/L): 6-24 h
- Time to cidality (≧3 log decrease) ([2]; 75814 (mecC), vancomycin ƒCmax 16 mg/L): 6-24 h
- Time to cidality (≧3 log decrease) ([2]; 75814 (mecC), vancomycin ƒCmin 4 mg/L): 6-24 h
- Time to cidality (≧3 log decrease) ([2]; 76918 (mecC), vancomycin ƒCmax 16 mg/L): 6-24 h
- Time to cidality (≧3 log decrease) ([2]; 76918 (mecC), vancomycin ƒCmin 4 mg/L): 6-24 h
- Time to cidality (≧3 log decrease) ([2]; 77431 (mecC), vancomycin ƒCmax 16 mg/L): 6-24 h
- Time to cidality (≧3 log decrease) ([2]; 77431 (mecC), vancomycin ƒCmin 4 mg/L): 6-24 h
- Time to cidality (≧3 log decrease) ([2]; 77601 (mecC), vancomycin ƒCmax 16 mg/L): 6-24 h
- Time to cidality (≧3 log decrease) ([2]; 77601 (mecC), vancomycin ƒCmin 4 mg/L): 6-24 h
- Time to cidality (≧3 log decrease) ([2]; 77950 (mecC), vancomycin ƒCmax 16 mg/L): 6-24 h
- Time to cidality (≧3 log decrease) ([2]; 77950 (mecC), vancomycin ƒCmin 4 mg/L): 6-24 h
- Time to cidality (≧3 log decrease) ([2]; 77964 (mecC), vancomycin ƒCmax 16 mg/L): 6-24 h
- Time to cidality (≧3 log decrease) ([2]; 77964 (mecC), vancomycin ƒCmin 4 mg/L): 6-24 h
- Time to cidality (≧3 log decrease) ([2]; 78085 (mecC), vancomycin ƒCmax 16 mg/L): 6-24 h
- Time to cidality (≧3 log decrease) ([2]; 78085 (mecC), vancomycin ƒCmin 4 mg/L): 6-24 h
- Time to cidality (≧3 log decrease) ([2]; 78651 (mecC), vancomycin ƒCmax 16 mg/L): 6-24 h
- Time to cidality (≧3 log decrease) ([2]; 78651 (mecC), vancomycin ƒCmin 4 mg/L): 6-24 h
- Time to cidality (≧3 log decrease) ([2]; ATCC 29213 (MSSA), vancomycin ƒCmax 16 mg/L): 6-24 h
- Time to cidality (≧3 log decrease) ([2]; ATCC 29213 (MSSA), vancomycin ƒCmin 4 mg/L): 6-24 h
- Time to cidality (≧3 log decrease) ([2]; ATCC 33591 (mecA), vancomycin ƒCmax 16 mg/L): 6-24 h
- Time to cidality (≧3 log decrease) ([2]; ATCC 33591 (mecA), vancomycin ƒCmin 4 mg/L): 6-24 h
- Time to cidality (≧3 log decrease) ([2]; ATCC 43300 (mecA), vancomycin ƒCmax 16 mg/L): 6-24 h
- Time to cidality (≧3 log decrease) ([2]; ATCC 43300 (mecA), vancomycin ƒCmin 4 mg/L): 6-24 h
- Time to achieve 3 log kill ([2]; all tested strains, both fCmin and fCmax): 6 to 24 hours
